Source: ChEMBL document CHEMBL1201862, “PubChem BioAssay data set” (2004)
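Five compound concentrations were applied to cells in 96-well plates for 48 hours; endpoints were derived by simple linear interpolation of the resulting dose-response curve. The concentration for 50% growth inhibition is given as GI50.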 Calls of active or inactive are those of the source. Rule as the data show it: active = GI50 up to about 1.1 µM and inactive = higher.

Columns and labels:
Assay in all cases: NCI-60 cell line screen, 48 h
BT-549 = test system: BT-549
CAKI-1 = test system: CAKI-1
CCRF-CEM = test system: CCRF-CEM
DU-145 = test system: DU-145
EKVX = test system: EKVX
HCC 2998 = test system: HCC 2998
HT-29 = test system: HT-29
M14 = test system: M14
MCF7 = test system: MCF7
MDA-N = test system: MDA-N
MOLT-4 = test system: MOLT-4
OVCAR-4 = test system: OVCAR-4
OVCAR-5 = test system: OVCAR-5
OVCAR-8 = test system: OVCAR-8
SF-539 = test system: SF-539
SK-MEL-2 = test system: SK-MEL-2
SK-OV-3 = test system: SK-OV-3
SNB-19 = test system: SNB-19
SR = test system: SR
UO-31 = test system: UO-31

Measured: GI50

COC(=O)C(C(=O)C(=O)Nc1ccccc1C#N)c1nc2ccc([N+](=O)[O-])cc2nc1O (stereo not given)
inactive: BT-549 > 100 µM | CAKI-1 > 100 µM | CCRF-CEM 94 µM | DU-145 > 100 µM | EKVX 78 µM | HCC 2998 > 100 µM | HT-29 > 100 µM | M14 > 100 µM | MCF7 > 100 µM | MDA-N > 100 µM | MOLT-4 > 100 µM | OVCAR-4 53.3 µM | OVCAR-5 > 100 µM | OVCAR-8 > 100 µM | SF-539 44.5 µM | SK-MEL-2 > 100 µM | SK-OV-3 > 100 µM | SNB-19 > 100 µM | SR > 100 µM | UO-31 > 100 µM
